The values below come from PubChem BioAssay (NCI).

Some test systems named below: DMS 114 small cell lung; KM20L2 colon; M19-MEL melanoma; MDA-N; RXF-631 renal; 786-0 renal; SN12K1 renal; P388 leukemia.
Common to all, as to assay: NCI tumour cell line growth inhibition, 48 h

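Tested at 5 concentrations; 48 h exposure; 96-well plates; endpoints linearly interpolated, else capped at highest concentration. TGI is the concentration that stops growth completely.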 A value given as a limit tells only on which side of the number the result lay.

Take `N#CCCOCN(CO)c1nc(N(CO)COCCC#N)nc(N(CO)COCCC#N)n1`: the TGI with DMS 114 small cell lung turned out to be 52.4 µM; in the experiment with KM20L2 colon it was 61.5 µM; with M19-MEL melanoma, 50 µM.
Regarding `COc1cc2c(cc1OC)C1Cc3cc(OC)c(OC)cc3C(C2)O1`, the TGI in the experiment with MDA-N was > 100 µM.
`CCOC(=O)C(=O)Nc1c(CC)cccc1C(C)CC` (stereo not drawn): the TGI in the experiment on DMS 114 small cell lung, in the experiment with KM20L2 colon, in the experiment on M19-MEL melanoma and in the experiment on RXF-631 renal was > 100 µM throughout.
For the molecule `Cc1c2cc[n+](C)cc2c(C)c2c1[nH]c1ccc(Cl)cc12`, the TGI in the experiment with DMS 114 small cell lung was 2.78 µM; with MDA-N it was > 59.3 µM; in the experiment with KM20L2 colon, 46 µM; with M19-MEL melanoma it was 3.94 µM; with 786-0 renal, 5.76 µM.
As for `Nc1cccc2c1C1=NNC(=O)CC1C2` (stereo not drawn), the TGI in the experiment with DMS 114 small cell lung, with KM20L2 colon, with SN12K1 renal, in the experiment on P388 leukemia and with M19-MEL melanoma was > 100 µM each time.
As for `O=C(Nc1cccc([N+](=O)[O-])c1)C(=O)C(C(=O)c1ccccc1F)C1OC(=O)C2C=CC=CC21` (stereo not drawn), the TGI with KM20L2 colon and in the experiment on M19-MEL melanoma was > 100 µM in each case.
On to `c1ccc(CCN2CCOCC2)nc1`, for which the TGI in the experiment with MDA-N and with 786-0 renal was > 100 µM in each case.
Take `NC(=O)Nc1ccc(C(=O)NCCCNC(=O)c2ccc(NC(N)=O)cc2)cc1`: the TGI in the experiment on MDA-N was > 100 µM.
